Measurements published in US20220274913A1, “PROCESS FOR MANUFACTURING A SUBSTITUTED CYCLOHEXANECARBONITRILE” (SOLVAY SA, priority 2019, published 2022).
“Also recorded” adds a separate entry of the source.

Assays:
Type in all cases: physicochemical
[1] = Solubility tests of hydrogenated quinones (QH) in solvent mixtures (polar solvent + S-150), synthetic EQ/ETQ working solutions; details: for Test level (gH2O2/kg) measured at 55° C. / Test level (gH2O2/kg) measured at 60° C. / Test level (gH2O2/kg) measured at 65° C. / Test level (gH2O2/kg) measured at 70° C. / Test level (gH2O2/kg) measured at 50° C.: 34*QH/240; for Test level values (theoretical gH2O2/kg of WS), comparison in words: Table 1
Method: The determination of the QH solubility was performed on synthetic EQ/ETQ working solutions. These quinones mixed in the tested solvents have been hydrogenated to a fixed level and cooled down successively to 3 different temperatures before the measurement (min. 3 hours to stabilize the system between each measurement). The conditions applied for these tests were:
(*) the polar solvents tested were sextate, decanenitrile, 2,2,6-trimethylcyclohexanecarbonitrile (C10A), 2,2,5,6-tetramethylcyclohexanecarbonitrile (C11A) and 1,2,2,4-tetramethylcyclohexylcarbonitrile (C11B). […] In this Figure, Kb stands for the weight partition coefficient of hydrogen peroxide between the water and the working solution (mixture of quinones and organic solvents). It is calculated using the following formula: […]
The maximum solubility of a hydrogenated quinone (QH) in a solvent mixture is directly correlated with the productivity of the working solution. The higher is the QH solubility, the higher will be the theoretical quantity of hydrogen peroxide achievable per kg of WS (Productivity). These theoretical values, designated by the terms “Test level (gH2O2/kg of WS) measured at . . . ” in Table 1, were calculated as follows: […]
1 mole (240 g) ETQH (which actually is the QH in our Examples) per kg of WS will produce 1 mole (34 g) of H2O2 per kg of WS.

[2] = Weight partition coefficient Kb of hydrogen peroxide between the water and the working solution; H2O2 in organic phase
Method: (*) the polar solvents tested were sextate, decanenitrile, 2,2,6-trimethylcyclohexanecarbonitrile (C10A), 2,2,5,6-tetramethylcyclohexanecarbonitrile (C11A) and 1,2,2,4-tetramethylcyclohexylcarbonitrile (C11B). […] In this Figure, Kb stands for the weight partition coefficient of hydrogen peroxide between the water and the working solution (mixture of quinones and organic solvents). It is calculated using the following formula:
Kb=(g H2O2/kg aqueous phase)/(g H2O2/kg organic phase)

[3] = TOC in the H2O2 obtained (solubility of the solvent in H2O2); details: for Solubility of the solvent in H2O2 (as indicated by level of TOC in the H2O2 obtained): comparison in words, Table 2
[4] = Approx density of polar solvents at ambient temperature
[5] = Polar solvent 40% / Solvesso 150 60%
[6] = Polar solvent 50% / Solvesso 150 50%
[7] = Polar solvent 60% / Solvesso 150 40%
[8] = Polar solvent 70% / Solvesso 150 30%
[9] = polar solvent 77% / S150 23%, listed as 4MCH-CN
[10] = Polar solvent 30% / Solvesso 150 70%

| Compound | H2O2 in OP [2, 5] [g/kg] | H2O2 in OP [2, 6] [g/kg] | H2O2 in OP [2, 7] [g/kg] | H2O2 in OP [2, 8] [g/kg] | TOC in H2O2 [3, 5] [ppm] | TOC in H2O2 [3, 6] [ppm] | TOC in H2O2 [3, 7] [ppm] | TOC in H2O2 [3, 8] [ppm] | Solubility of the solvent in H2O2 (as indicated by level of TOC in the H2O2 obtained) [3] | Approx density of polar solvents at amb T° [4] [kg/L] | Test level values (theoretical gH2O2/kg of WS), comparison in words [1] | Test level (gH2O2/kg) measured at 60° C. ([1]; polar solvent 50% / S150 50%) [gH2O2/kg] | Test level (gH2O2/kg) measured at 65° C. ([1]; polar solvent 50% / S150 50%) [gH2O2/kg] | Test level (gH2O2/kg) measured at 70° C. ([1]; polar solvent 50% / S150 50%) | H2O2 in OP [2, 10] [g/kg] | TOC in H2O2 [3, 10] [ppm] | other results |
| --- | --- | --- | --- | --- | --- | --- | --- | --- | --- | --- | --- | --- | --- | --- | --- | --- | --- |
| CC1CCC(C)(C#N)C(C)(C)C1 (stereo not shown) [C11B, 1,2,2,4-tetramethylcyclohexanecarbonitrile] | 1.632 | 2.487 | 3.167 | 3.805 | 308 | 328 | 280 | 290 | less soluble in H2O2 than solvent C10A | – | – | – | – | – | – | – | Test level (gH2O2/kg) measured at 55° C. ([1]; polar solvent 52% / S150 48%): 9.4 gH2O2/kg; Test level (gH2O2/kg) measured at 60° C. ([1]; polar solvent 52% / S150 48%): 10.8 gH2O2/kg; Test level (gH2O2/kg) measured at 65° C. ([1]; polar solvent 52% / S150 48%): 15.1 gH2O2/kg; QH (g/kg) measured at 70° C. ([1]; polar solvent 52% / S150 48%): full soluble; Test level (gH2O2/kg) measured at 70° C. ([1]; polar solvent 52% / S150 48%): full soluble; Test level (gH2O2/kg) measured at 55° C. ([1]; polar solvent 70% / S150 30%): 15.5 gH2O2/kg; QH (g/kg) measured at 60° C. ([1]; polar solvent 70% / S150 30%): complete solubility; also recorded: full soluble; QH (g/kg) measured at 65° C. ([1]; polar solvent 70% / S150 30%): full soluble; Test level (gH2O2/kg) measured at 65° C. ([1]; polar solvent 70% / S150 30%): full soluble; QH (g/kg) measured at 70° C. ([1]; polar solvent 70% / S150 30%): full soluble; Test level (gH2O2/kg) measured at 70° C. ([1]; polar solvent 70% / S150 30%): full soluble |
| CC1CCC(C)(C)C(C#N)C1C (stereo not shown) [C11A, 2,2,5,6-tetramethylcyclohexanecarbonitrile] | 1.271 | – | 2.332 | 2.786 | 268 | 269 | 274 | 291 | less soluble in H2O2 than solvent C10A | ~0.895 | reach the absolute maximum theoretical value | 9.8 | 10.8 | 14.8 gH2O2/kg | 0.919 | 281 | Test level (gH2O2/kg) measured at 50° C. ([1]; polar solvent 50% / S150 50%): 7.7 gH2O2/kg; Test level (gH2O2/kg) measured at 55° C. ([1]; polar solvent 50% / S150 50%): 8.6 gH2O2/kg; Test level (gH2O2/kg) measured at 50° C. ([1]; polar solvent 77% / S150 23%): 11.9 gH2O2/kg; Test level (gH2O2/kg) measured at 55° C. ([1]; polar solvent 77% / S150 23%): 12.8 gH2O2/kg; QH (g/kg) measured at 60° C. ([1]; polar solvent 77% / S150 23%): complete solubility; Test level (gH2O2/kg) measured at 60° C. ([1]; polar solvent 77% / S150 23%): 16.3 gH2O2/kg; Test level (gH2O2/kg) measured at 60° C. [1, 9]: full soluble; QH (g/kg) measured at 60° C. [1, 9]: full soluble; QH (g/kg) measured at 65° C. ([1]; polar solvent 77% / S150 23%): full soluble; Test level (gH2O2/kg) measured at 65° C. ([1]; polar solvent 77% / S150 23%): full soluble; QH (g/kg) measured at 70° C. ([1]; polar solvent 77% / S150 23%): full soluble; Test level (gH2O2/kg) measured at 70° C. ([1]; polar solvent 77% / S150 23%): full soluble |
| CC1CCCC(C)(C)C1C#N (stereo not shown) [C10A, 2,2,6-trimethylcyclohexanecarbonitrile] | 1.466 | 2.135 | 3.08 | 3.871 | 1042 | 1248 | 1456 | 1684 | – | ~0.89 | much higher (almost the double in fact) than with sextate or a linear nitrile like decanenitrile | 10.5 | 11.4 | full soluble | 0.9821 | 928 | QH (g/kg) measured at 70° C. ([1]; polar solvent 50% / S150 50%): full soluble; Test level (gH2O2/kg) measured at 60° C. ([1]; polar solvent 60% / S150 40%): 15.6 gH2O2/kg; QH (g/kg) measured at 65° C. ([1]; polar solvent 60% / S150 40%): full soluble; Test level (gH2O2/kg) measured at 65° C. ([1]; polar solvent 60% / S150 40%): full soluble; QH (g/kg) measured at 70° C. ([1]; polar solvent 60% / S150 40%): full soluble; Test level (gH2O2/kg) measured at 70° C. ([1]; polar solvent 60% / S150 40%): full soluble |
| CCCCCCCCCC#N [Decanenitrile, decanenitrile, reference compound] | – | – | – | – | – | – | – | – | – | ~0.83 | – | – | – | – | – | – | Test level (gH2O2/kg) measured at 60° C. ([1]; polar solvent 35% / S150 65%): 8.8 gH2O2/kg; Test level (gH2O2/kg) measured at 65° C. ([1]; polar solvent 35% / S150 65%): 10.1 gH2O2/kg; Test level (gH2O2/kg) measured at 70° C. ([1]; polar solvent 35% / S150 65%): 11.1 gH2O2/kg |
| methyl cyclohexyl acetate [Sextate, reference compound] | – | – | – | – | – | – | – | – | – | ~0.94 | – | – | – | – | – | – | QH (g/kg) measured at 60° C. ([1]; polar solvent 40% / S150 60%): 52 g/kg; Test level (gH2O2/kg) measured at 60° C. ([1]; polar solvent 40% / S150 60%): 7.4 gH2O2/kg; QH (g/kg) measured at 65° C. ([1]; polar solvent 40% / S150 60%): 60.8 g/kg; Test level (gH2O2/kg) measured at 65° C. ([1]; polar solvent 40% / S150 60%): 8.6 gH2O2/kg; QH (g/kg) measured at 70° C. ([1]; polar solvent 40% / S150 60%): 68 g/kg; Test level (gH2O2/kg) measured at 70° C. ([1]; polar solvent 40% / S150 60%): 9.6 gH2O2/kg |
